Reference: patent US20250302720A1, “PEPTIDE-BASED HAIR TREATMENT” (Sederma, priority 2020, published 2025)
Residues, ends and D or L forms follow the SMILES beside them.

Key:
[1] = tested on: reduced glutathione (GSH); assay: Reduced glutathione of the NHM (fluorescent probe); type: cell-based, human; conditions: 24 h, vs control
Experimental: NHM almost at confluence are brought into contact with the peptide according to the invention for 24 hours. After this contact, the cells are broken in an extraction buffer that preserves glutathione. The amount of GSH is determined by a specific fluorescent probe.

MC1R = MC1R labelling by immunohistology in isolated hair follicles; type: cell-based, human; conditions: 10 ppm, 8 days
Experimental: Follicles comprising their bulb with little pigment and isolated from a scalp plasty (resulting from cosmetic surgery— donor, dark blond; person) are placed individually in the wells of a culture plate containing the culture medium and maintained for survival (37° C.; 5% CO2).
Twelve follicles are reserved for T0 to serve as a reference for visual estimation and quantification of pigmentation but also for subsequent labeling of MC1R and MITF by immunohistology (six follicles for each marker).
Twelve follicles are placed in contact with the peptide according to the invention at 10 ppm in its solvent and twelve others in contact with the solvent alone for 8 days (0.1% DMSO in culture medium). At 8 days, all the follicles are stopped and fixed, then sectioned (7 μm) and marked with alunated carmine and photographed under a microscope. Sections of 6 of them (for each group) are used for visual and quantitative assessment by image analysis of their pigmentation (with specific filter to measure melanin). Sections of the other 6 are used for MC1R and MITF scoring, which is to be assessed by visual estimation.

[2] = tested on: grey/white hair of volunteers; assay: In-vivo grey/white hair density in volunteers (standardized photos, Image J image analysis); parameters: species or system human
Experimental: The in-vivo tests were carried out by applying the hair lotion described above in point 1) in the Galenic part. This lotion comprises 90 ppm of the peptide of the invention. Four independent studies were conducted with a total of 84 volunteers (average age of the entire panel of selected volunteers was 42 years). All four studies were conducted over a wide range of geographical locations, times, seasons, application sites, phototypes and methods. The details are specified in the below table.
All the studies used a complex photographic system, with the camera mounted on a bench to ensure perfect repositioning of the volunteer's head at all study times. For each volunteer, profile photos, and in some studies also of the back or the top of the head, were taken in cross-polarized mode to eliminate any parasitic shine so as not to interfere with the image analysis photo treatment. These photos are used to both get an overview of the grey hair intensity and, by their quality, to work on a smaller isolated area.
The evaluation of the area occupied by grey/white hair was made in the photos with the NIH-USA™ Image J software by targeting the areas of interest.
Commonly, a short hair size (2 cm for example) was requested, except for test site 2, and that this size be the same for a volunteer at different measurement times to facilitate before-after comparisons.
Also, in common, each original photo, in color, was converted to an image with grey levels, the same level filter (thresholding operation) was applied before and after to the photos of the same volunteer. Non-black hair where thus selected. At the end, a binarization operation (black/white) was carried out to separate the non-black hairs (grey and white) from the blacks and to quantify the former.

CREB = assay: Expression of melanogenesis genes in NHM (qRTPCR): CREB; type: cell-based, human; conditions: 72 h, vs control, n = 4
Experimental: NHM are cultivated and brought into contact with the peptide according to the invention or its solvent. At the end of 72 h of contact, the melanocytes are crushed, and the mRNAs are recovered, converted into cDNA which are analyzed by qRTPCR, to estimate the changes in the expression level of the mRNAs. The expression of the following genes has been studied: MITF, TYRP1 and CREB.

[3] = tested on: melanocyte dendrites (NHM); assay: Length of melanocyte dendrites (antibody labelling, image analysis); type: cell-based, human; conditions: 48 hours, vs control, n = 3
Experimental: The cells are brought into contact with the peptide according to the invention for 48 hours. Then the melanocyte layers, once rinsed, are labeled using an antibody. The area occupied by the dendrites are obtain by image analysis on the photos taken, a parameter converted into the relative dendrite length/100 cells. At the same time, the cell nuclei are counterstained using Hoescht 33258 fluorescent dye to estimate the cell number and to harmonize the data.

[4] = tested on: Normal human skin melanocytes (NHM); assay: Melanin production by NHM after 10 days; type: cell-based; conditions: vs control, n = 4
Experimental: Normal human skin melanocytes (NHM), little or moderately melanin producing are used. These cells are cultured and brought into contact for 10 days with the peptide according to the invention at different concentrations or with its solvent in equivalent concentration (control). Culture media are changed every 2-3 days. After this contact, the cell mats are crushed, and the melanin is extracted from the cells. The melanin quantity is evaluated spectrophotometrically at 490 nm, using a standard range previously established from a melanin solution. Protein assay using the Bicinchoninic Acid (BCA) method is used to estimate the cell quantity to homogenize the obtained data.

[5] = 7 volunteers, behind the head, T 3 m
[6] = 7 volunteers, behind the head, T 6 m (3 months after the last application)
[7] = 10 volunteers, top of the head, T 4 m
[8] = 10 volunteers, top of the head, T 8 m (4 months after the last application)
[9] = lotion 90 ppm, 5 ml/d, 17 volunteers, one side (profile), T 3 m
[10] = lotion 90 ppm, 5 ml/d, 21 volunteers, behind the head, T 3 m
[11] = lotion 90 ppm, 5 ml/d, 21 volunteers, one side (profile)/temple, T 3 m
[12] = lotion 90 ppm, 5 ml/d, 25 volunteers, one side (profile), T 3 m
[13] = lotion 90 ppm, 5 ml/d, site 2, 18 volunteers, top of the head, T 4 m
[14] = lotion 90 ppm, 5 ml/d, site 2, 19 volunteers, top of the head, T3 m
[15] = lotion 90 ppm, 17 volunteers, one side (profile), T 3 m
[16] = lotion 90 ppm, 21 volunteers, behind the head, T 3 m
[17] = lotion 90 ppm, 21 volunteers, one side (profile)/temple, T 3 m
[18] = lotion 90 ppm, 25 volunteers, one side (profile), T 3 m

For `CCCCCCCCCCCCCCCC(=O)N1CCC[C@H]1C(=O)N1CCC[C@H]1C(=O)O` [Pal-PP-OH, palmitoyl-prolyl-proline] (HELM PEPTIDE1{[CCCCCCCCCCCCCCCC(=O)[*:2]].P.P}$$$$V2.0), which “Reduced glutathione concentration, Variation (%)” value ([1]; 10 ppm, n = 6) is on record?
Its value is “+28%; p < 0.05”.

And the “Reduced glutathione concentration, Variation (%)” value ([1]; 12.5 ppm, n = 6)?
Its value is “+38%; p < 0.01”.

What about the “Reduced glutathione concentration, Variation (%)” value ([1]; 12.5 ppm, n = 6, listed as peptide of the invention) of the same compound?
The value was “+38%”.

What about the “MC1R in the lower sheaths, visual estimation vs control” value (MC1R) of the same compound?
Its value is “increased more”.

What about the “MC1R in the bulb, visual estimation compared to T0” value (MC1R; stable in the control case) of the same compound?
The value was “increased”.

What about the “Grey hair density, Maximum” value [2, 5] of the same compound?
The value was −70%.

And the “Grey hair density, Repondents” value [2, 5]?
Its value is 100%.

What about the “Grey hair density, Moyenne (%)” value ([2]; 7 volunteers, behind the head, T 3 m (end of 3 months of application)) of the same compound?
The value was 3.14%.

What about the “Grey hair density, Maximum” value [2, 6] of the same compound?
Its value is −60%.

And the “Grey hair density, Moyenne (%)” value [2, 6]?
The value was 3.00%.

What about the “Grey hair density, Repondents” value [2, 6] of the same compound?
The value was 100%.

What about the “Grey hair density, Maximum” value [2, 7] of the same compound?
Its value is −22%.

And the “Grey hair density, Repondents” value [2, 7]?
Its value is 100%.

And the “Grey hair density, Moyenne (%)” value ([2]; 10 volunteers, top of the head, T 4 m (end of 4 months of application))?
Its value is 39.36%.

And the “Grey hair density, Variation vs. T0” value ([2]; 10 volunteers, top of the head, T 4 m (end of 4 months of application), listed as peptide according to the invention)?
The value was −15.04%.

And the “Grey hair density, Maximum” value [2, 8]?
The value was −45%.

And the “Grey hair density, Moyenne (%)” value [2, 8]?
Its value is 36.04%.

And the “Grey hair density, Repondents” value [2, 8]?
The value was 80%.

And the “Grey hair density, Variation vs. T0” value ([2]; 10 volunteers, top of the head, T 8 m (4 months after the last application), listed as peptide according to the invention)?
The value was −22.20%.

And the “decrease of the grey hair density on the temples, on average (3 tests)” value ([2]; after 3 months of application)?
Its value is 32.4%.

And the “decrease of the grey hair density” value ([2]; after 3 months of application, back of the head, 21 volunteers)?
The value was 31.9%.

And the “decrease of the grey hair density” value ([2]; after 3 months of application, temples, 21 volunteers)?
Its value is 37.5%.

What about the “Grey hair density, Mean (%)” value [2, 9] of the same compound?
The value was 7.50%.

And the “Grey hair density, Variation vs. T0” value [2, 9]?
The value was −21.1%.

What about the “Grey hair density, Mean (%)” value [2, 10] of the same compound?
Its value is 3.28%.

What about the “Grey hair density, Variation vs. T0” value [2, 10] of the same compound?
The value was −31.9%.

What about the “Grey hair density, Mean (%)” value [2, 11] of the same compound?
The value was 4.78%.

What about the “Grey hair density, Variation vs. T0” value [2, 11] of the same compound?
Its value is −37.5%.

And the “Grey hair density, Mean (%)” value [2, 12]?
The value was 1.90%.

What about the “Grey hair density, Variation vs. T0” value [2, 12] of the same compound?
Its value is −38.7%.

And the “Grey hair density, Mean (%)” value [2, 13]?
The value was 39.78%.

And the “Grey hair density, Variation vs. T0” value [2, 13]?
Its value is −10.90%.

What about the “Grey hair density, Mean (%)” value [2, 14] of the same compound?
The value was 40.22%.

What about the “Grey hair density, Variation vs. T0” value [2, 14] of the same compound?
Its value is −8.80%.

And the “Grey hair density, Maximum variation” value [2, 15]?
Its value is −67%.

And the “Grey hair density, respondents” value [2, 15]?
The value was 76%.

And the “Grey hair density, Maximum variation” value [2, 16]?
The value was −70%.

And the “Grey hair density, respondents” value [2, 16]?
The value was 95%.

And the “Grey hair density, Maximum variation” value [2, 17]?
The value was −70%.

And the “Grey hair density, respondents” value [2, 17]?
Its value is 100%.

What about the “Grey hair density, Maximum variation” value [2, 18] of the same compound?
The value was −86%.

And the “Grey hair density, respondents” value [2, 18]?
Its value is 68%.

And the “Grey hair density, respondents, mean of 3 studies” value ([2]; lotion 90 ppm, column Mean T 3 m vs. T0, one side (profile))?
Its value is 81%.

And the “Grey hair density, Variation vs. T0, Mean T 3 m vs. T0 of 3 studies” value ([2]; lotion 90 ppm, mean of the 3 studies (21, 25, 17 volunteers), one side (profile), T 3 m)?
Its value is −32.43%.

And the “Grey hair density, Maximum” value ([2]; lotion 90 ppm, site 2, 18 volunteers, top of the head, T 4 m)?
Its value is −23%.

And the “Grey hair density, respondents” value ([2]; lotion 90 ppm, site 2, 18 volunteers, top of the head, T 4 m, listed as peptide according to the invention)?
The value was 84%.

And the “Grey hair density, Maximum” value ([2]; lotion 90 ppm, site 2, 19 volunteers, top of the head, T3 m)?
The value was −26%.

And the “Grey hair density, respondents” value ([2]; lotion 90 ppm, site 2, 19 volunteers, top of the head, T3 m, listed as peptide according to the invention)?
Its value is 79%.

What about the “decrease in grey/white hair” value ([2]; top of the head, T 3 months) of the same compound?
The value was 8.8%.

What about the “decrease in grey/white hair” value ([2]; top of the head, after 4 months of use) of the same compound?
The value was 10.9%.

And the “variation in the expression of CREB gene” value (CREB; 10 ppm)?
Its value is “+46%; p < 0.01”.

What about the “variation in the expression of CREB gene” value (CREB; 12.5 ppm) of the same compound?
The value was “+56%; p < 0.01”.

And the “Lenght of the dendrites, Variation (%)” value ([3]; 5 ppm)?
The value was “+20%; p < 0.01”.

What about the “Lenght of the dendrites, Variation (%)” value ([3]; 10 ppm) of the same compound?
Its value is “+33%; p < 0.01”.

And the “Lenght of the dendrites, Variation (%)” value ([3]; 15 ppm)?
The value was “+57%; p < 0.01”.

What about the “Melanin concentration, Variation (%)” value ([4]; 5 ppm, moderately pigmented (§) NHM) of the same compound?
The value was “+48%; p < 0.01”.

And the “Melanin concentration, Variation (%)” value ([4]; 5 ppm, poorly pigmented (§§) NHM)?
The value was “+4%; nsd”.

And the “Melanin concentration, Variation (%)” value ([4]; 10 ppm, moderately pigmented (§) NHM)?
Its value is “+123%; p < 0.01”.

And the “Melanin concentration, Variation (%)” value ([4]; 10 ppm, poorly pigmented (§§) NHM)?
Its value is “+81%; p < 0.01”.

And the “Melanin concentration, Variation (%)” value ([4]; 12.5 ppm, moderately pigmented (§) NHM)?
The value was “+223%; p < 0.01”.

And the “Melanin concentration, Variation (%)” value ([4]; 12.5 ppm, poorly pigmented (§§) NHM)?
Its value is “+113%; p < 0.01”.
